# Laboratory results from US8829011B2 (Janssen Pharmaceutica NV, priority 2008, dated 2014).
# Where a name gives a salt, the structure may show the parent alone.
# Tests used:
# [1] = biological target: T1, human recombinant 5-HT2C receptor (Homo sapiens, UniProt P28335); assay: Affinity for 5-HT2C receptor binding sites (competitive radioligand binding, [3H]mesulergine); conditions: membranes of CHO with h5-HT2C, * = tested as hydrochloride salt
# T1 construct: expressed in transfected cells; host or cells: CHO
# T1 sequence (P28335 33-458): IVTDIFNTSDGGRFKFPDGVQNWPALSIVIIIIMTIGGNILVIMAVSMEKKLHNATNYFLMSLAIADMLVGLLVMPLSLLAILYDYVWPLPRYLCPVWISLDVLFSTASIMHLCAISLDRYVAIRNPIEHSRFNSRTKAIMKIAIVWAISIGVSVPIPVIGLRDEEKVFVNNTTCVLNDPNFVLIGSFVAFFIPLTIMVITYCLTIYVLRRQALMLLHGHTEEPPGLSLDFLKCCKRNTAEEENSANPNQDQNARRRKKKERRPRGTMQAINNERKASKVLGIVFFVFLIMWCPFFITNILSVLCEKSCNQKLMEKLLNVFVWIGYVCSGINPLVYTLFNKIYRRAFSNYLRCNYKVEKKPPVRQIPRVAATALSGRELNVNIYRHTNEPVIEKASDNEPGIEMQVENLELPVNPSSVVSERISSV
# In short: (§1)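 Membranes from NIH3T3 cells stably expressing h5-HT2A or CHO cells stably expressing h5-HT2B/h5-HT2C; [3H]ketanserin used for 5-HT2A, [3H]mesulergine for 5-HT2B/2C. Compounds from 10 mM DMSO stocks, final DMSO ≤0.4%. Affinity from sigmoidal inhibition curves fitted by nonlinear regression.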
# [2] = biological target: T2, human recombinant 5-HT6 receptor (Homo sapiens, UniProt P50406); assay: Affinity for 5-HT6 receptor binding sites (competitive radioligand binding, [3H]LSD); conditions: membranes of HEK-293 with h5-HT6, * = tested as hydrochloride salt
# T2 construct: expressed in transfected cells; host or cells: HEK-293
# In short: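 Membranes from HEK-293 cells stably expressing human 5-HT6, competition against [3H]LSD; nonspecific binding defined with 1 μM clozapine. DMSO ≤0.4% final. Inhibition curves fitted by nonlinear regression.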
# rat 5-HT7a receptor = biological target: T3, rat 5-HT7a receptor (Rattus norvegicus, UniProt P32305); assay: Affinity for 5-HT7 receptor binding sites (competition radioligand binding, [3H]5-CT); conditions: membranes of HEK-293 cells with rat 5-HT7a; 1 nM [3H]5-CT; * = tested as hydrochloride salt
# T3 construct: expressed in transfected cells; host or cells: HEK-293
# Method: Stock drug solutions (10 mM) were prepared in DMSO (the final assay concentration of DMSO not exceeding 0.4%). Drug dilutions were prepared in assay buffer.
# Sigmoidal inhibition curves were generated and fitted by nonlinear regression analysis (GraphPad Prism).
# 1. Affinity for 5-HT7 Receptor Binding Sites
# The affinity of the compounds described in this invention for the 5-HT7 receptor binding site was evaluated by single competition radioligand binding assay. The assay was performed on membranes prepared from HEK-293 cells that had been subjected to stable transfection with the rat 5-HT7a receptor (GB: NM022938). Cells were scraped from the culture plates, suspended in Tris-HCl 50 mM pH 7.5 and collected through centrifugation (1000 rpm for 5 min). The cell pellets were homogenized (Polytron, 15 s, setting 5) in 50 mM Tris-HCl (pH 7.5), 5 mM EDTA. Following centrifugation (15,000 rpm for 25 min), membranes (135 μg protein/mL) were resuspended in the same buffer and incubated for 60 min at RT with 1 nM [^3H]5-CT in the presence of increasing concentration of test compounds. Nonspecific binding was defined in the presence of 10 μM 5-HT. Incubation was stopped by rapid filtration using the cell harvester (Packard). Radioactivity was counted in a TopCount-NXT (Packard). Experiments were conducted in triplicate.
# [3] = biological target: T4, human recombinant 5-HT2B receptor (Homo sapiens, UniProt P41595); assay: Affinity for 5-HT2B receptor binding sites (competitive radioligand binding, [3H]mesulergine); conditions: membranes of CHO with h5-HT2B, * = tested as hydrochloride salt
# T4 construct: expressed in transfected cells; host or cells: CHO
# In short: as §1
# [4] = biological target: T5, human recombinant 5-HT2A receptor (Homo sapiens, UniProt P28223); assay: Affinity for 5-HT2A receptor binding sites (competitive radioligand binding, [3H]ketanserin); conditions: membranes of NIH3T3 with h5-HT2A, * = tested as hydrochloride salt
# T5 construct: expressed in transfected cells; host or cells: NIH3T3
# In short: as §1
# T4 sequence (P41595 whole entry): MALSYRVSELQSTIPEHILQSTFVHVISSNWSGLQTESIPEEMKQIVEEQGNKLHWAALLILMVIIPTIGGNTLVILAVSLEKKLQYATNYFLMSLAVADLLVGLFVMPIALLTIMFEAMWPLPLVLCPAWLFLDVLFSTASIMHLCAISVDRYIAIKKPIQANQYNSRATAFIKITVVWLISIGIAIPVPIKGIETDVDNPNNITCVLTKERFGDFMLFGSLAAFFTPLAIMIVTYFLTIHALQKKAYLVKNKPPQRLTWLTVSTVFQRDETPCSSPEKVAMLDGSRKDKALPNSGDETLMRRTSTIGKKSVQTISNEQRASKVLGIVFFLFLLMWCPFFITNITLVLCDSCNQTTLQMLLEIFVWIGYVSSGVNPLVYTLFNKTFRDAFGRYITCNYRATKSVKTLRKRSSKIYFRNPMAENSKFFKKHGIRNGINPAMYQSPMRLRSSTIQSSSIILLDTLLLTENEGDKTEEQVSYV
# T5 sequence (P28223 whole entry): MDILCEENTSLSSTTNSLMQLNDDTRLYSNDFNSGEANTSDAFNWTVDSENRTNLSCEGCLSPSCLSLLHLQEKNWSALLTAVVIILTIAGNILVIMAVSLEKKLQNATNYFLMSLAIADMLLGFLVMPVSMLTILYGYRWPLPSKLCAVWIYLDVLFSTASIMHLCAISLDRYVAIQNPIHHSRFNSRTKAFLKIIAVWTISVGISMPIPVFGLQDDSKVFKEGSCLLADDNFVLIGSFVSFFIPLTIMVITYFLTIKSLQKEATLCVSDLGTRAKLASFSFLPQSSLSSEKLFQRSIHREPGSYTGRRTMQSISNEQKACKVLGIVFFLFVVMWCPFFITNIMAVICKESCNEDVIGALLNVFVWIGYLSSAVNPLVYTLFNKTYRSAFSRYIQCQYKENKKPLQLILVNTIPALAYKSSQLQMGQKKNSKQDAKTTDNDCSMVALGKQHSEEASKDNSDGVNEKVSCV
# T2 sequence (P50406 whole entry): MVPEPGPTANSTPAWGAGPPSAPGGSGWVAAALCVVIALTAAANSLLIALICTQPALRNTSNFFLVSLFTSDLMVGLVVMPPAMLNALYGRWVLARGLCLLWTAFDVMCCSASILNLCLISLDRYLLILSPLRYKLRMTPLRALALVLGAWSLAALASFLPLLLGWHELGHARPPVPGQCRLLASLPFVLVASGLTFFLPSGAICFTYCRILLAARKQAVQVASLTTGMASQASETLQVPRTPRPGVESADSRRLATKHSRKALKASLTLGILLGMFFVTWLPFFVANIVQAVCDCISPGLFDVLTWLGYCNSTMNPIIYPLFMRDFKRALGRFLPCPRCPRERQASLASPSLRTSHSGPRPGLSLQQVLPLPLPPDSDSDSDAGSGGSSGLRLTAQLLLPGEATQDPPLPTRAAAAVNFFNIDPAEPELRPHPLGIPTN
# T3 sequence (P32305 whole entry): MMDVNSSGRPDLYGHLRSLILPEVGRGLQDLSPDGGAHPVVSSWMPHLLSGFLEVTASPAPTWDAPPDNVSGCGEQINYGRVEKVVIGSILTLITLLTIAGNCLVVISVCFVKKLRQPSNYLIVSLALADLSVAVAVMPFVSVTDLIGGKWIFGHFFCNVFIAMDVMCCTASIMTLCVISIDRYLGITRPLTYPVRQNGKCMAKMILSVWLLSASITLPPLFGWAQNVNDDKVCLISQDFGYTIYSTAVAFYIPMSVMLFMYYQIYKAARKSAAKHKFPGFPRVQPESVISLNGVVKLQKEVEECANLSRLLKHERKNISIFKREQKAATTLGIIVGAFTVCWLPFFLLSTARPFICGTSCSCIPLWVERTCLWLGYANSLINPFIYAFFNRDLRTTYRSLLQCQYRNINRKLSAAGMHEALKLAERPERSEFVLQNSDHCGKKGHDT
Ki [2] [µM],SMILES,Ki [1] [µM],Ki (rat 5-HT7a receptor) [µM],Ki [3] [µM],Ki [4] [µM]
0.3,CCN(CC)c1nc2c(c(-c3ccc(C)cc3)n1)CCCNC2 [Example 2],0.43,0.22,0.025,0.17
0.127,"COc1ccc(-c2nc(N3CCCCC3C)nc3c2CCCNC3)cc1 (stereo not shown) [Example 5, 4-(4-Methoxy-phenyl)-2-(2-methyl-piperidin-1-yl)-6,7,8,9-tetrahydro-5H-pyrimido[4,5-c]azepine hydrochloride]",1.8,> 10,0.2,1.5
0.084,"CCN(CC)c1nc2c(c(-c3ccc(F)cc3)n1)CCNCC2 [Example 9, Diethyl-[4-(4-fluoro-phenyl)-6,7,8,9-tetrahydro-5H-pyrimido[4,5-d]azepin-2-yl]-amine hydrochloride]",0.04,0.029,0.007,0.02
1.46,"CCN(CC)c1nc2c(c(-c3ccncc3)n1)CCNCC2 [Example 10, Diethyl-(4-pyridin-4-yl-6,7,8,9-tetrahydro-5H-pyrimido[4,5-d]azepin-2-yl)-amine hydrochloride]",> 10,1.2,0.05,0.5
0.025,"CCN(CC)c1nc2c(c(-c3ccc(C)cc3)n1)CCNCC2 [Example 11, Diethyl-(4-p-tolyl-6,7,8,9-tetrahydro-5H-pyrimido[4,5-d]azepin-2-yl)-amine hydrochloride]",0.063,0.04,0.005,0.004
0.08,"CCN(CC)c1nc2c(c(-c3ccsc3)n1)CCNCC2 [Example 12, Diethyl-(4-thiophen-3-yl-6,7,8,9-tetrahydro-5H-pyrimido[4,5-d]azepin-2-yl)-amine hydrochloride]",0.05,0.04,0.0032,0.03
,"Cc1ccc(-c2nc(N3CCCCCC3)nc3c2CCN(Cc2ccccc2)C3)cc1 [Example 33, 2-Azepan-1-yl-7-benzyl-4-p-tolyl-5,6,7,8-tetrahydro-pyrido[3,4-d]pyrimidine]",3.2,> 10,0.8,0.54
,"Cc1ccc(-c2nc(N3CCCCCC3)nc3c2CCNC3)cc1 [Example 34, 2-Azepan-1-yl-4-p-tolyl-5,6,7,8-tetrahydro-pyrido[3,4-d]pyrimidine]",0.27,0.09,0.04,0.018
,"COc1ccc(-c2nc(N3CCCCCC3)nc3c2CCN(Cc2ccccc2)C3)cc1 [Example 35, 2-Azepan-1-yl-7-benzyl-4-(4-methoxy-phenyl)-5,6,7,8-tetrahydro-pyrido[3,4-d]pyrimidine]",> 10,> 10,0.7,> 10
,"COc1ccc(-c2nc(N3CCCCCC3)nc3c2CCNC3)cc1 [Example 36, 2-Azepan-1-yl-4-(4-methoxy-phenyl)-5,6,7,8-tetrahydro-pyrido[3,4-d]pyrimidine]",0.32,0.21,0.1,0.16
,"N#Cc1ccc(-c2nc(N3CCCCCC3)nc3c2CCN(Cc2ccccc2)C3)cc1 [Example 37, 4-(2-Azepan-1-yl-7-benzyl-5,6,7,8-tetrahydro-pyrido[3,4-d]pyrimidin-4-yl)-benzonitrile]",> 10,> 10,1.3,2.4
,"Fc1ccc(-c2nc(N3CCCC3)nc3c2CNCC3)cc1 [Example 41, 4-(4-Fluoro-phenyl)-2-pyrrolidin-1-yl-5,6,7,8-tetrahydro-pyrido[4,3-d]pyrimidine hydrochloride]",0.94,> 10,0.75,0.025
,"CCN(C)c1nc2c(c(-c3ccc(F)cc3)n1)CNCC2 [Example 44, Ethyl-[4-(4-fluoro-phenyl)-5,6,7,8-tetrahydro-pyrido[4,3-d]pyrimidin-2-yl]-methyl-amine hydrochloride]",0.3,2,0.18,0.0095
,"CCN(CC)c1nc2c(c(-c3ccc(Cl)cc3)n1)CNCC2 [Example 46, [4-(4-Chloro-phenyl)-5,6,7,8-tetrahydro-pyrido[4,3-d]pyrimidin-2-yl]-diethyl-amine hydrochloride]",0.25,0.1,0.2,0.03
,"Cc1ccc(-c2nc(N3CCCC3)nc3c2CNCC3)cc1 [Example 47, 2-Pyrrolidin-1-yl-4-p-tolyl-5,6,7,8-tetrahydro-pyrido[4,3-d]pyrimidine]",1.6,> 10,0.5,0.12
,"CC1CCCN1c1nc2c(c(-c3ccc(Cl)cc3)n1)CCNCC2 (stereo not shown) [Example 54, 4-(4-Chloro-phenyl)-2-(2-methyl-pyrrolidin-1-yl)-6,7,8,9-tetrahydro-5H-pyrimido[4,5-d]azepine]",0.089,0.37,0.005,0.03
,"Clc1ccc(-c2nc(NCc3ccccc3)nc3c2CCNCC3)cc1 [Example 56, Benzyl-[4-(4-chloro-phenyl)-6,7,8,9-tetrahydro-5H-pyrimido[4,5-d]azepin-2-yl]-amine]",0.04,9,0.045,0.0014
1.48,"CCN(CC)c1nc2c(c(-c3ccc(Cl)cc3)n1)CNCCC2 [Example 59, [4-(4-Chloro-phenyl)-6,7,8,9-tetrahydro-5H-1,3,6-triaza-benzocyclohepten-2-yl]-diethyl-amine hydrochloride]",,> 10,,

SMILES,Ki [2] [µM],Ki [1] [µM],Ki (rat 5-HT7a receptor) [µM],Ki [3] [µM],Ki [4] [µM]
"CCN(CC)c1nc2c(c(-c3ccc(F)cc3)n1)CCCNC2 [Example 1, Diethyl-[4-(4-fluoro-phenyl)-6,7,8,9-tetrahydro-5H-pyrimido[4,5-c]azepin-2-yl]-amine]",2.26,0.3,0.47,0.032,0.02
"CCN(CC)c1nc2c(c(-c3ccc(OC)cc3)n1)CCCNC2 [Example 3, Diethyl-[4-(4-methoxy-phenyl)-6,7,8,9-tetrahydro-5H-pyrimido[4,5-c]azepin-2-yl]-amine]",0.16,0.4,0.24,0.02,0.2
"CCN(CC)c1nc2c(c(-c3ccc(C#N)cc3)n1)CCCNC2 [Example 4, 4-(2-Diethylamino-6,7,8,9-tetrahydro-5H-pyrimido[4,5-c]azepin-4-yl)-benzonitrile]",3.75,9,0.92,0.1,0.24
"CC1CCCCN1c1nc2c(c(-c3ccc(F)cc3)n1)CCCNC2 (stereo not shown) [Example 6, 4-(4-Fluoro-phenyl)-2-(2-methyl-piperidin-1-yl)-6,7,8,9-tetrahydro-5H-pyrimido[4,5-c]azepine]",0.31,1,> 10,0.2,0.2
"CC1CCCCN1c1nc2c(c(-c3ccc(C#N)cc3)n1)CCCNC2 (stereo not shown) [Example 7, 4-[2-(2-Methyl-piperidin-1-yl)-6,7,8,9-tetrahydro-5H-pyrimido[4,5-c]azepin-4-yl]-benzonitrile]",1.24,3.2,> 10,0.28,0.4
"Cc1ccc(-c2nc(N3CCCCC3C)nc3c2CCCNC3)cc1 (stereo not shown) [Example 8, 2-(2-Methyl-piperidin-1-yl)-4-p-tolyl-6,7,8,9-tetrahydro-5H-pyrimido[4,5-c]azepine]",0.068,2,0.5,0.1,0.18
